Each structure is given as a SMILES string. In brackets after ≈: the same amount, converted by molar mass.

The kinetic solubility is solubility judged after dilution from a stock solution rather than from solid.

For this series the following is noted: buffer; pH 7.4; 200.0 µM.
For the compound `Cc1cccc(NC(=O)Nc2ccc(Br)cc2)n1`, the solubility (kinetic) was less than 0.2 µg/mL. `Cc1cc2oc(=O)sc2cc1NS(=O)(=O)c1ccccc1`: the solubility (kinetic) turned out to be 42.8 µg/mL (≈ 133 µM). In turn, `CC(C)c1csc2nc3n(c(=O)c12)CCCCC3` had a kinetic solubility of 32.9 µg/mL (≈ 125 µM).

`CC(=O)c1ccc(N2CCN(C3CCC(C(C)(C)C)CC3)CC2)cc1` (configuration not stated) displayed a kinetic solubility of 0.8 µg/mL (≈ 2.34 µM). Consider `O=C(CN1C(=O)COc2ccccc21)NCCN1CCCC1`, for which the solubility (kinetic) was more than 45.5 µg/mL. For the compound `CSc1nsc(SCC(=O)Nc2ccccc2F)n1`, the kinetic solubility came to 38 µg/mL (≈ 120 µM). To `COc1ccccc1OCC(=O)OCC(=O)NC1CCCCC1` belongs more than 48.2 µg/mL.

On to `Cc1oc(S(=O)(=O)N2CCCCC2)cc1NC(=O)Nc1ccc(F)cc1`, for which the solubility (kinetic) was determined as 5.5 µg/mL (≈ 14.4 µM).

In turn, `O=C(COc1ccccc1[N+](=O)[O-])N1CCCc2ccccc21` returned a kinetic solubility of more than 46.8 µg/mL.

Compound `Cc1ccc(OCC(=O)N2C(C)CCCC2C)c([N+](=O)[O-])n1` (configuration not stated) displayed a solubility (kinetic) of more than 46.1 µg/mL.

In turn, `O=C(COc1ccccc1)N1CCN=C1SCc1cccc(F)c1` registered a kinetic solubility of 3.4 µg/mL (≈ 9.87 µM). Consider `CC(C)c1cc(O)c(-c2ccccc2)c(=O)n1-c1ccc(Cl)cc1`, for which the kinetic solubility is less than 0.7 µg/mL.

For `O=c1c2ccccc2nc2ccccn12`, the solubility (kinetic) came to 28.7 µg/mL (≈ 146 µM). To `CC1(C)CC(=O)C=C(NCc2cccc(C(F)(F)F)c2)C1` belongs more than 44.6 µg/mL; to `CC(NC(=O)COC(=O)c1ccc[nH]c1=O)c1ccccc1` (configuration not stated), more than 45 µg/mL; to `CS(=O)(=O)Nc1ccccc1C(=O)OCC(=O)NCc1cccs1`, more than 55.3 µg/mL. `COc1ccccc1CN(C)C(=O)CSCC(=O)Nc1ccccc1F` returned a solubility (kinetic) of more than 56.5 µg/mL. `CC(C)(CNc1ccc([N+](=O)[O-])cc1Cl)N1CCOCC1`: the kinetic solubility was 1.4 µg/mL (≈ 4.46 µM).

Compound `CC1CCCN(CCC(=O)c2ccc(Br)cc2)C1.Cl` (configuration not stated) registered a solubility (kinetic) of 33.8 µg/mL.

Regarding `CC(C)(C)c1ccc(C(=O)NC(=S)N2CCOCC2)cc1`, the kinetic solubility is more than 46 µg/mL. In turn, `COc1cccc(CNC(=O)CCCC(=O)NC(C)CCc2ccccc2)c1` (configuration not stated) returned a solubility (kinetic) of more than 57.4 µg/mL. In the case of `O=C(O)/C=C/c1ccc(S(=O)(=O)NCc2cccnc2)cc1`, the solubility (kinetic) is more than 47.8 µg/mL.

`CSc1ccccc1NC(=O)CN(C)CC(=O)c1[nH]c(C)c(C(C)=O)c1C` registered a solubility (kinetic) of 6.7 µg/mL (≈ 17.3 µM). In turn, `CC1CCc2c(sc3ncnc(SCC(=O)N(C)C4CCS(=O)(=O)C4)c23)C1` (configuration not stated) registered a kinetic solubility of 3.3 µg/mL (≈ 7.75 µM). Against the preceding compound, the solubility kinetic is about 2-fold lower. `CCOc1ccc(/C=N/OCC(=O)Nc2ccc3c(c2)OCO3)cc1` had a solubility (kinetic) of 5.2 µg/mL (≈ 15.2 µM). As for `CC(=O)N1CCN(C(=S)NC(=O)c2ccc(F)cc2)CC1`, the solubility (kinetic) was more than 46.4 µg/mL. `COc1ccccc1C(=O)NC1CCSc2ccccc21` (configuration not stated) returned a solubility (kinetic) of 31.5 µg/mL (≈ 105 µM).

With `CNS(=O)(=O)c1cccc(C(=O)OCC(=O)N2CCN(C(=O)c3ccco3)CC2)c1`, the solubility (kinetic) is more than 65.3 µg/mL.

For `CCCCCCn1c(=O)[nH]c2c(c1=O)CCC2`, the solubility (kinetic) was more than 35.4 µg/mL. For the compound `Cc1ccc(NC(=O)CO/N=C/c2ccccc2C)c(C)c1`, the kinetic solubility was determined as 8.7 µg/mL (≈ 29.4 µM).

The compound `COC(=O)c1ccc(NC(=S)Nc2ccc(O)cc2)cc1` returned a solubility (kinetic) of 22.3 µg/mL (≈ 73.8 µM). As to `CN1CCN(c2ccc(CNS(=O)(=O)c3ccccc3)cc2)CC1`, the solubility (kinetic) stood at 12.6 µg/mL (≈ 36.5 µM). This solubility kinetic is about 1.8-fold lower than that of the compound before. `O=C(Nc1nccs1)C1CC=CCC1` (configuration not stated) showed a solubility (kinetic) of 22.7 µg/mL (≈ 109 µM). To `O=C(/C=C/c1ccco1)Nc1cccnc1Cl` belongs 33 µg/mL (≈ 133 µM). Compound `O=C(Nc1ccccc1F)NC1CCCCCCC1` registered a kinetic solubility of 6.9 µg/mL (≈ 26.1 µM). Compared with the last compound, the solubility kinetic is about 4.8-fold lower. Under `Cc1ccc(NC(=O)c2cc(F)c(F)cc2Cl)nc1` stands 12.8 µg/mL (≈ 45.3 µM); under `O=C(CNC(=O)c1cccc(F)c1)NC1CC1`, more than 35.4 µg/mL.

For the compound `O=C(COC(=O)c1ccccc1Br)NC1CCCC1`, the kinetic solubility is more than 48.9 µg/mL. Compound `N/C(=N/O)c1cccn1Cc1ccccc1[N+](=O)[O-]` showed a solubility (kinetic) of more than 39 µg/mL.

For the compound `Brc1ccc(C2=CSC3=NCCN23)cc1`, the kinetic solubility is 28.9 µg/mL (≈ 103 µM). Consider `COc1ccc2c(c1)c(-c1csc(N)n1)c(C)n2C`, for which the kinetic solubility came to 27.7 µg/mL (≈ 101 µM).

As for `Cl.c1ccc(CCNCc2cccs2)cc1`, the solubility (kinetic) came out at 32.6 µg/mL.

The values above are taken from PubChem BioAssay AID1996.
